Data: patent publication US5733904A, “Method for prevention and treatment of viral infectious diseases for viral suppression” (priority 1996, dated 1998)
“Also recorded” adds a separate entry of the source.

Experiments:
Type in all cases: cell-based
[1] = system: HIV-1 (LAV-1 strain) in MOLT-4 cells; assay: Inhibitory activity of HIV syncytia formation: HIV-1 acute-phase infection; conditions: in concentrations of at least 1.0 μM; 48 hours
Protocol: a) Activity of the medicament on HIV-1 acute-phase infection:
Cells obtained by culturing MOLT-4 (American Type Culture Collection ATCC CRL-1582) in RPMI medium (GIBCO Corp.) containing 10% FBS (fetal bovine serum: GIBCO Corp.) (culture condition: 37° C., 5% CO2 /95% air) were prepared to aliquot number of cells (1×10^5 cells/50 μl). The cell suspension, 50 μl and the liquid preparation, 50 μl containing HIV-1 (LAV-1 strain, Wain-Hobson et al., Cell 40: 9-17, 1985) in RPMI medium with 10% FBS were put into each well of a 96 hole microplate and cultured for 48 hours (Infectious condition of MOLT-4 and HIV-1: M.O.I.=4.0).
Each compound was dissolved in RPMI medium containing 10% FBS at the final concentration as shown in FIG. 1 to prepare the medicament solution. The medicament solution, 100 μl was added to the mixture of MOLT-4 cell preparation and HIV-1 preparation at the time of mixing with MOLT-4 and HIV-1 to prepare the final volume of the liquid, 200 μl. The number of formed syncytia were microscopically counted.
Tested compounds were: FAS (fasudil hydrochloride, Chem. Pharm. Bull., 40 (3), 770-773, (1992)), C kinase inhibitor H-7 (1-5-isoquinolinylsulfonyl)-2-methyl-piperazine, Sigma Corp.), and calmodulin kinase II inhibitor KN-62 (1-(N,O-bis-[5-isoquinolinylsulfonyl]-N-methyl-L-tyrosyl)-4-phenyl-piperazine, Sigma Corp., Neuroscience Lett., 129, 47 (1991)) .
The control group without the compound was prepared by replacing the medicament solution, 100 μl.
Syncytium formation activity was calculated by comparing the syncytia formation in the test group to that of the control group in the following equation.
Syncytium formation activity=number of syncytia formed in the medicament-added group/number of syncytia formed in the no-medicament-added group.

[2] = system: HIV-1 p24 gag protein, HIV-1 infected MOLT-4 cells; assay: Suppressive action of HIV production (p24 gag protein in culture supernatant, ELISA); conditions: FIG. 4; 5 days; hydrochloride
Protocol: Suppressive action of HIV production (extracellular release from cells). Cells obtained by culturing MOLT-4 (culture condition: 37° C., 5% CO2 /95% air. RPMI medium (GIBCO Corp.) containing 10% FBS) were adjusted to a preferable number of cells (1×10^5 cells/50 μl). The cell suspension, 50 μl, (infection with MOLT-4 and HIV-1: M.O.I.=1.0) were put in a 96 hole microplate and cultured for 1 hour to infect the cells. A solution of the compounds shown below, 100 μl, was added in each well and cultured for 5 days. The cultured solution was transferred into a plastic tube (Eppendorf Corp.) and centrifuged. The amount of p24 gag protein in the cultured supernatant medium wa assayed by using an Abbott kit (ELISA: Dinabot Co.). FAS, H-7 and KN-62 were used as the compound, and a solution without the compound was used as a control.

HIV-1 = assay: Comparison of suppressive activity of HIV proliferation with FAS and other anti-HIV drugs (syncytium formation)
Protocol: Comparison of suppressive activity of HIV proliferation with FAS and other anti-HIV drugs.
Experiments were conducted by the same method as in Example 3.
The medicaments used in this experiment were compounds of the present invention (FAS, and a compound of formula [I] where R^1 is hydroxy as in the above-mentioned Japanese Patent Unexamined Publication No. 61-152658), ddI (Sigma Corp.) and AZT (Sigma Corp.) which are used as medicaments for the treatment of AIDS, and dextran sulfate (Sigma Corp.).

Compound: Cl.O=S(=O)(c1cccc2cnccc12)N1CCCNCC1 [FAS, hexahydro-1-(5-isoquinoline-sulfonyl)-1H-1,4-diazepine hydrochloride]
- inhibition of syncytia formation [1]: 90%
- p24 gag protein in the cultured supernatant medium / HIV-1 generation [2]: decreased p24 gag protein in the cultured supernatant medium and suppressed HIV-1 generation; also recorded: apparently stronger than that of H-7 (-.increment.-) and KN-62 (-.quadrature.-)
- inhibitory activity of syncytium formation of HIV-1 (HIV-1): higher sensitivity than dextran sulfate, ddI and AZT
- IC50 (HIV-1; Human immunodeficiency virus 1, FIG. 5, approximate, read-out: 50% inhibitory concentration, syncytium formation): ~800 nM
